From patent publication US20160296499A1, “Spiroindoline Antiparasitic Derivatives” (ZOETIS SERVICES LLC, priority 2013, published 2016)
Like-named read-outs stand apart in the source and are kept apart here.

Tests used:
[1] = test system: Haemonchus contortus L3; test: Haemonchus contortus, Larvae Stage 3 (HcL3) In Vitro Assay; conditions: Haemonchus contortus
[2] = biological target: T1, bovine vesicular acetylcholine transporter (VAChT) (Bos taurus, UniProt E1BK36); test: Radioligand Binding Assay; conditions: Bovine binding Ki, CHO-K1 membranes with recombinant bovine VAChT, [3H]Compound X6 0.3 nM
T1 sequence (E1BK36 1-524): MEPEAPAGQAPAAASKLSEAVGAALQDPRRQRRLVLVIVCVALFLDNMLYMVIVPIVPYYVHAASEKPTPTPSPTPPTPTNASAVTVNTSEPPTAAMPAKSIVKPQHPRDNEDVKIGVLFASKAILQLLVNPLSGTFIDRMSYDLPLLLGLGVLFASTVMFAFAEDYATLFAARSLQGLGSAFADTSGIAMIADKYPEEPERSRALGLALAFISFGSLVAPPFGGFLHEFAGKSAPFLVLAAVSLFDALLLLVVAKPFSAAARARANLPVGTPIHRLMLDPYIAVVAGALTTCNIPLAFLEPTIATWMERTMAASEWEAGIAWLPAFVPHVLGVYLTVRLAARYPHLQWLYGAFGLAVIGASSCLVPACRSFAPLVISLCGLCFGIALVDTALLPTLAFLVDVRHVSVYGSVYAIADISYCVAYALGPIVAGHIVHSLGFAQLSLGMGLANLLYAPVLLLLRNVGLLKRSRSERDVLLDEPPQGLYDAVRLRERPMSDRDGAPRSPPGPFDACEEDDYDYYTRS

[3] = test system: Dirofilaria immitis microfilariae; test: Dirofilaria immitis, Microfilariae (DiMF) In Vitro Assay; conditions: Dirofilaria immitis
[4] = 96 h, read-out: HcL3 MEC, Minimal Effective Concentration whereby worm motility is inhibited by approximately 70%, 37° C., tested 0.001-100 μM
[5] = 72 h, read-out: Di MF, MEC, decrease in microfilariae motility by visual assessment, curve starting at 100 μM
[6] = 96 hours, 37° C., read-out: HcL3 MEC

| Structure (SMILES) | minimal effective concentration [1, 4] [µM] | Ki [2] [nM] | minimal effective concentration [3, 5] [µM] | minimal effective concentration [1, 6] [µM] | minimal effective concentration ([3]; 72 hours, read-out: Di MF) [µM] |
| --- | --- | --- | --- | --- | --- |
| N#Cc1cc2c(cn1)N(C(=O)NCc1ccnc(Cl)c1)CC21CCN(C/C=C/c2ccc(Cl)cc2)CC1 [Example 86, (E)-1-(3-(4-chlorophenyl)allyl)-N-((2-chloropyridin-4-yl)methyl)-5′-cyanospiro[piperidine-4,3′-pyrrolo[2,3-c]pyridine]-1′(2′H)-carboxamide] | 3.3 | 31.7 | 5.7 |  |  |
| N#Cc1ccc2c(n1)C1(CCN(C/C=C/c3ccc(Cl)cc3)CC1)CN2C(=O)NCc1ccnc(Cl)c1 [Example 87, (E)-1-(3-(4-chlorophenyl)allyl)-N-((2-chloropyridin-4-yl)methyl)-5′-cyanospiro[piperidine-4,3′-pyrrolo[3,2-b]pyridine]-1′(2′H)-carboxamide] | 18.2 | 38.1 | 5.7 |  |  |
| O=C(NCc1ccnc(Cl)c1)N1CC2(CCN(C/C=C/c3ccc(Cl)cc3)CC2)c2c(OC(F)(F)F)cccc21 [Example 88, (E)-1′-(3-(4-chlorophenyl)allyl)-N-((2-chloropyridin-4-yl)methyl)-4-(trifluoromethoxy)spiro[indoline-3,4′-piperidine]-1-carboxamide] | 100 | 1130 | 3.3 |  |  |
| O=C(NCc1ccnc(Cl)c1)N1CC2(CCN(C/C=C/c3ccc(Cl)cc3)CC2)c2c(SC(F)(F)F)cccc21 [Example 89, (E)-1′-(3-(4-chlorophenyl)allyl)-N-((2-chloropyridin-4-yl)methyl)-4-(trifluoromethylthio)spiro[indoline-3,4′-piperidine]-1-carboxamide] | 100 | 774 | 6.9 |  |  |
| O=C(NCc1ccnc(F)c1)N1CC2(CCN(C/C=C/c3ccc(Cl)cc3)CC2)c2c(F)cc(C(F)(F)F)cc21 [Example 90, (E)-1′-(3-(4-chlorophenyl)allyl)-4-fluoro-N-((2-fluoropyridin-4-yl)methyl)-6-(trifluoromethyl)spiro[indoline-3,4′-piperidine]-1-carboxamide] | 1.8 | 256 | 10 |  |  |
| O=C(NCc1ccnc(F)c1)N1CC2(CCN(C/C=C/c3ccc(Cl)cc3)CC2)c2c(-c3ccccc3)cccc21 [Example 91, (E)-1′-(3-(4-chlorophenyl)allyl)-N-((2-fluoropyridin-4-yl)methyl)-4-phenylspiro[indoline-3,4′-piperidine]-1-carboxamide] | 100 | 295 | 3.3 |  |  |
| O=C(NCc1ccnc(F)c1)N1CC2(CCN(C/C=C/c3ccc(Cl)cc3)CC2)c2c1cccc2C(F)(F)F [Example 92, (E)-1′-(3-(4-chlorophenyl)allyl)-N-((2-fluoropyridin-4-yl)methyl)-4-(trifluoromethyl)spiro[indoline-3,4′-piperidine]-1-carboxamide] | 5 | 796 | 5 |  |  |
| O=C(NCc1ccnc(F)c1)N1CC2(CCN(C/C=C/c3ccc(Cl)cc3)CC2)c2c(C3CC3)cccc21 [Example 93, (E)-1′-(3-(4-chlorophenyl)allyl)-4-cyclopropyl-N-((2-fluoropyridin-4-yl)methyl)spiro[indoline-3,4′-piperidine]-1-carboxamide] | 100 | 958 | 5.7 |  |  |
| O=C(NCc1ccnc(F)c1)N1CC2(CCN(C/C=C/c3ccc(Cl)cc3)CC2)c2c(OC(F)(F)F)cccc21 [Example 94, (E)-1′-(3-(4-chlorophenyl)allyl)-N-((2-fluoropyridin-4-yl)methyl)-4-(trifluoromethoxy)spiro[indoline-3,4′-piperidine]-1-carboxamide] | 100 | 3930 | 3.3 |  |  |
| O=C(NCc1cnc(Cl)s1)N1CC2(CCN(C/C=C/c3ccc(Cl)cc3)CC2)c2c(OC(F)(F)F)cccc21 [Example 95, (E)-1′-(3-(4-chlorophenyl)allyl)-N-((2-chlorothiazol-5-yl)methyl)-4-(trifluoromethoxy)spiro[indoline-3,4′-piperidine]-1-carboxamide] | 100 | 1010 | 3.3 |  |  |
| N#Cc1ccc(/C=C/CN2CCC3(CC2)CN(C(=O)NCc2ccnc(Cl)c2)c2cc(-c4ccccc4C(F)(F)F)ccc23)cc1 [Example 96, (E)-N-((2-chloropyridin-4-yl)methyl)-1′-(3-(4-cyanophenyl)allyl)-6-(2-(trifluoromethyl)phenyl)spiro[indoline-3,4′-piperidine]-1-carboxamide] | 100 | 25.4 | 5.7 |  |  |
| N#Cc1ccc(/C=C/CN2CCC3(CC2)CN(C(=O)NCc2ccnc(Cl)c2)c2ccc([N+](=O)[O-])cc23)cc1 [Example 97, (E)-N-((2-chloropyridin-4-yl)methyl)-1′-(3-(4-cyanophenyl)allyl)-5-nitrospiro[indoline-3,4′-piperidine]-1-carboxamide] | 33 | 63.7 | 5.7 |  |  |
| N#Cc1ccc(/C=C/CN2CCC3(CC2)CN(C(=O)NCc2ccnc(Cl)c2)c2c(F)ccc(C(F)(F)F)c23)cc1 [Example 98, (E)-N-((2-chloropyridin-4-yl)methyl)-1′-(3-(4-cyanophenyl)allyl)-7-fluoro-4-(trifluoromethyl)spiro[indoline-3,4′-piperidine]-1-carboxamide] | 100 | 1570 | 10 |  |  |
| N#Cc1ccc(/C=C/CN2CCC3(CC2)CN(C(=O)NCc2ccnc(Cl)c2)c2cccc(C(F)(F)F)c23)cc1 [Example 99, (E)-N-((2-chloropyridin-4-yl)methyl)-1′-(3-(4-cyanophenyl)allyl)-4-(trifluoromethyl)spiro[indoline-3,4′-piperidine]-1-carboxamide] | 10 | 306 | 5.7 |  |  |
| O=C(NCc1ccnc(F)c1)N1CC2(CCN(C/C=C/c3ccc(F)cc3)CC2)c2ccc(OC(F)(F)F)cc21 [Example 100, (E)-1′-(3-(4-fluorophenyl)allyl)-N-((2-fluoropyridin-4-yl)methyl)-6-(trifluoromethoxy)spiro[indoline-3,4′-piperidine]-1-carboxamide] | 3.3 | 121 | 10 |  |  |
| O=C(NCc1ccnc(F)c1)N1CC2(CCN(C/C=C/c3ccc(F)cc3)CC2)c2ccc(C(F)(F)F)cc21 [Example 101, (E)-1′-(3-(4-fluorophenyl)allyl)-N-((2-fluoropyridin-4-yl)methyl)-6-(trifluoromethyl)spiro[indoline-3,4′-piperidine]-1-carboxamide] |  | 65.2 |  | 3.3 | 10 |
| O=C(NCc1ccnc(Cl)c1)N1CC2(CCN(C/C=C/c3ccc(Cl)c(Cl)c3)CC2)c2c(Br)cccc21 [Example 102, (E)-4-bromo-N-((2-chloropyridin-4-yl)methyl)-1′-(3-(3,4-dichlorophenyl)allyl)spiro[indoline-3,4′-piperidine]-1-carboxamide] | 5.3 | 144 | 10 |  |  |
| O=C(NCc1ccnc(F)c1)N1CC2(CCN(C/C=C/c3ccc(Cl)c(Cl)c3)CC2)c2c(Br)cccc21 [Example 103, 4-bromo-1′-[(E)-3-(3,4-dichlorophenyl)allyl]-N-[(2-fluoro-4-pyridyl)methyl]spiro[indoline-3,4′-piperidine]-1-carboxamide] | 3.3 | 466 | 5.7 |  |  |
| O=C(NCc1ccnc(F)c1)N1CC2(CCN(C/C=C/c3ccc(Cl)c(Cl)c3)CC2)c2cc(Br)ccc21 [Example 104, 5-bromo-1′-[(E)-3-(3,4-dichlorophenyl)allyl]-N-[(2-fluoro-4-pyridyl)methyl]spiro[indoline-3,4′-piperidine]-1-carboxamide] |  | 43.7 |  | 3.3 | 10 |
| O=C(NCc1ccnc(F)c1)N1CC2(CCN(C/C=C/c3ccc(Cl)cc3)CC2)c2cc(Br)ccc21 [Example 105, 5-bromo-1′-[(E)-3-(4-chlorophenyl)allyl]-N-[(2-fluoro-4-pyridyl)methyl]spiro[indoline-3,4′-piperidine]-1-carboxamide] | 3.3 | 32.2 | 3.3 |  |  |
| O=C(NCc1ccnc(F)c1)N1CC2(CCN(C/C=C/c3ccc(F)cc3)CC2)c2cc(Br)ccc21 [Example 106, 5-bromo-1′-[(E)-3-(4-fluorophenyl)allyl]-N-[(2-fluoro-4-pyridyl)methyl]spiro[indoline-3,4′-piperidine]-1-carboxamide] | 3.3 | 72.7 | 10 |  |  |
